This passage reports Ki and IC50 results from paper doi:10.1101/2022.12.07.519454v2 (biorxiv, 2023).

Assay [1] addresses T1, yeast Sin3 PAH2 domain (Saccharomyces cerevisiae, UniProt P22579).
T1 sequence (P22579 402-473): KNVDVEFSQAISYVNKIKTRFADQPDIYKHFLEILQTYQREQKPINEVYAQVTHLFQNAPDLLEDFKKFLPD
Kind of assay: fluorescence polarization displacement of FITC-Ume6 SID. The format is binding.

Assay [2] has as its target T1, yeast Sin3 PAH2 domain. Kind of assay: fluorescence polarization displacement of FITC-Ume6 SID peptide. Type of assay: binding. A general note: Polarisation of emitted light reports the rotation of a fluorescent probe.

By Ki is commonly meant a dissociation constant, usually derived from enzyme kinetics or from competition with a known ligand. Low values mean higher affinity, high ones lower affinity. By IC50 is commonly meant the concentration that gives 50% inhibition. `C[C@H](NC(=O)C1C(=O)N=C2C=CC=CN2C1O)c1ccccc1` (stereo partly drawn) [E6S, 4-hydroxy-2-oxo-N-((S)-1-phenylethyl)-3,4-dihydro-2H-pyrido[1,2-a]pyrimidine-3-carboxamide] came in with a Ki on yeast Sin3 PAH2 domain [1] of 38.5 µM. For the same molecule, the IC50 on yeast Sin3 PAH2 domain [2] stood at 174 ± 21.9 µM.
For `C[C@@H](NC(=O)C1C(=O)N=C2C=CC=CN2C1O)c1ccccc1` (stereo partly drawn) [E6R, 4-hydroxy-2-oxo-N-((R)-1-phenylethyl)-3,4-dihydro-2H-pyrido[1,2-a]pyrimidine-3-carboxamide] the same measures were 16.1 µM and 74.5 ± 7.2 µM.
